Data taken from patent US20250205200A1, “5-METHOXY-N,N-[…][…] THE TREATMENT OF […]” (GH RESEARCH IRELAND LIMITED, priority 2022, published 2025).

Experiments:
[1] = test system: Escherichia coli (WP2 uvrA pKM101); assay: Bacterial mutation test, Escherichia coli; assay type: cell-based; conditions: up to 5000 μg/plate; absence and presence of S-9
Description: (§1) These conditions included treatments at concentrations up to 5000 μg/plate (the maximum recommended concentration according to current regulatory guidelines), in the absence and in the presence of a rat liver metabolic activation system (S-9).

[2] = test system: Salmonella typhimurium (TA98, TA100, TA1535 and TA1537); assay: Bacterial mutation test, Salmonella typhimurium; assay type: cell-based; conditions: up to 5000 μg/plate; absence and presence of S-9
Description: as §1

[3] = Pharmacokinetics of 5-MeO-DMT and bufotenine after inhalation; assay type: in vivo, human

COc1ccc2[nH]cc(CCN(C)C)c2c1 [5-MeO-DMT]
Induction of mutation [1]: did not induce mutation
Induction of mutation [2]: did not induce mutation
Plasma concentration as % of Cmax ([3]; 10 minutes after inhalation, 6, 12, 18 mg): ≤ 10 % of Cmax
Plasma concentration as % of Cmax ([3]; 2 hours after inhalation, 6, 12, 18 mg): ≤ 1 % of Cmax
Detectability in the plasma ([3]; 3 hours after inhalation, 6, 12, 18 mg): no longer detectable
Time of maximum concentrations and pharmacological effects ([3]; inhaled): during and immediately after dosing
Accumulation upon repeated administration ([3]; repeated administration within 1 to 4 hours): No accumulation
